In patent US9125930B2, “EGFR aptamer inhibitor for use in therapy and diagnosis” (CONSIGLIO NAZIONALE DELLE RICERCHE, priority 2010, dated 2015):

Key:
[1] = system: NIH3T3 cells stably transfected with human EGFR (NIH/EGFR); experiment: Binding on NIH/EGFR cells; parameters: species or system mouse; details: [32P]-labeled aptamer at 100 nM; relative to scrambled aptamer
Method: Human NSCLC A549, epidermoid carcinoma A431, glioma U87MG and T98G, breast SKBr3, MCF7 and T47D and mouse fibroblast NIH3T3 (all from American Type Culture Collection, Manassas, Va.) cells were grown in Dulbecco's modified Eagle medium (DMEM) supplemented with 10% fetal bovine serum (FBS) and 2 mM L-glutamine (Invitrogen, Carlsbad, Calif.). NIH3T3 cells stably transfected with human EGFR (NIH/EGFR) were grown in DMEM with 10% FBS and 2 mM L-glutamine supplemented with 50 μg/ml Gentamycin.
(§1) Binding experiments were performed with 5′-[^32P]-labeled RNA. For labeling 2′-F-Py RNAs were 5′-end dephosphorylated using bacterial alcaline phosphatase (Invitrogen, Carlsbad, Calif.) before [^32P]-5′-end-labeled using T4 kinase (Invitrogen) and γ-[^32P]-ATP (6×10^3 Ci/mmol, GE Healthcare Bio-Sciences, Uppsala, Sweden) according to the supplier's instructions.
(§2) For binding experiments on cells, 3.5×10^4 cells were plated in 24-well plates in triplicate and were incubated with CL4 42-81 aptamer the scrambled sequence used as a negative control at 100 nM concentration in 200 μl of DMEM serum free for 20 min at RT in the presence of 100 μg/ml polyinosine as a nonspecific competitor (Sigma, St. Louis, Mo.). After five washings with 500 μl DMEM, bound sequences were recovered in 300 μl of SDS 1%, and the amount of radioactivity recovered was counted.

[2] = system: Calu1 cells; experiment: Binding on Calu1 cells; parameters: species or system human; details: EGFR-positive; 100 nM
Method: as §1, §2

[3] = system: H460 cells; experiment: Binding on H460 cells; parameters: species or system human; details: low level of EGFR; 100 nM
Method: as §1, §2

[4] = molecular target: T1, soluble extracellular domain of human EGFR (EC-EGFR) (Homo sapiens, UniProt P00533); experiment: Filter binding on soluble extracellular domain of EGFR
T1 construct: purchased R&D Systems
Method: as §1
The aptamers ability to bind EGFR or ErbB3 soluble extracellular domain (EC-EGFR and EC-ErbB3) was investigated by filter binding by plotting the fraction of RNA bound to the nitrocellulose filter as a function of protein concentration, using the following equation:
[formula] where Bmax is the extrapolated maximal amount of RNA:protein complex that will be bound. 1 nM of radiolabelled aptamers (CL4 42-81 aptamer or the scrambled sequence) were incubated with 1, 3.2, 10, 32, 100, 320 and 1000 nM of EC-EGFR and EC-ErbB3 (all from R&D Systems, Minneapolis, Minn.) for 15 min at 37° in phosphate-buffered saline (PBS) supplemented with 0.01% bovine serum albumin.
In order to test the binding for dimeric and monomeric proteins, 1 nM of radiolabelled aptamers (CL4 42-81 or scrambled) were incubated with 20 nM of EC-EGFR and EC-ErbB3 without or with 5 mM DTT.
After incubation, the aptamer-protein mix was passed through nitrocellulose membrane filter (Millipore Co., Bedford, Mass.) and filters were counted. […]

[5] = system: ERK; experiment: Immunoblot of EGF-induced ERK phosphorylation; type: cell-based, human; details: data not shown
Method: To assess the effects of aptamers on EGFR activity, A549 cells (1.5×10^5 cells per 3.5-cm plate) were serum-starved over night, pretreated with 200 nM CL4 42-81 aptamer or the scrambled aptamer used as a negative control for 3 h and then stimulated for 30 min with 50 ng/ml EGF (R&D Systems, Minneapolis, Minn.) either alone or in presence of each aptamer. The aptamers were subjected to a short denaturation-renaturation step (85° C. for 5 min, snap-cooled on ice for 2 min, and allowed to warm up to 37° C.) before each treatment. To prepare cell extracts, cells were washed twice in ice-cold PBS, and lysed in buffer A (50 mM Tris-HCl pH 8.0 buffer containing 150 mM NaCl, 1% Nonidet P-40, 2 mg/ml aprotinin, 1 mg/ml pepstatin, 2 mg/ml leupeptin, 1 mM Na3VO4). Protein concentration was determined by the Bradford assay using bovine serum albumin as the standard. The cell lysates were subjected to SDS-PAGE. […]

[6] = system: A431 cells; experiment: Cell viability assay, A431 cells; type: cell-based, human
Method: Cell viability was assessed with CellTiter 96® AQueous One Solution Cell Proliferation Assay (Promega, Madison, Wis.) according to according to the supplier's instructions. Cells (4×10^3 cells/well) were plated in 96-well plates in triplicate. and were treated for 24 hs with heat denatured CL4 42-81 or the scrambled aptamer at 3 μM concentration. RNA concentrations were determined to ensure the continuous presence of a concentration of at least 200 nM, which takes into account the 6 hs-half life of the aptamer in 10% serum. The optical density (OD) was measured using a Multilabel Counter (Bio-Rad) at a wavelength of 490 nm and cell viability was calculated by the following formula: Cell viability (%)=(OD treated cells/OD control cells)×100%. FACS Analysis

CL4 42-81: 2′-fluoropyrimidine nuclease-resistant RNA aptamer of 39 nt: 5′ GCCUUAGUAACGUGCUUUGAUGUCGAUUCGACAGGAGGC 3′ (SEQ ID No. 1) (2'-fluoro at CU, RNA at AG, backbone not given here)
binding on NIH/EGFR cells [1]: binds | binding on Calu1 cells [2]: binds | binding on H460 cells [3]: does not bind | Kd [4]: 10 nM | EGF-induced phosphorylation of ERK [5]: decreases | sensitivity of A431 cell viability ([6]; 200 nM-final concentration, not shown): same effect | cell viability ([6]; A431, 24 hs, 200 nM final concentration, relative to untreated cells set to 100%): about 60%
